These results are taken from US20100203110A1, “Therapeutics for Cancer Using 3-Bromopyruvate and Other Selective Inhibitors of ATP Production” (The Johns Hopkins University, priority 2006, published 2010).

For this assay, the system named is "metastatic" lung tumors. As to the kind of experiment: Systemic delivery via marginal ear vein, metastatic lung nodules. It counts as in vivo, rabbit. The procedure: FIG. 4 depicts the effect of systemic delivery of 3-BrPA on animals harboring the liver implanted VX2 tumor. FIG. 4A depicts histological sections of 9 different tissues isolated 4 days after injecting 3-BrPA (25 ml 0.5 mM) into a marginal ear vein. No damage to these tissues is evident. (Magnification=120×). FIG. 4B depicts a section from a liver implanted VX2 tumor isolated from a control animal not receiving 3-BrPA. […] Cells in both appear completely viable. (Magnification 120×) FIG. 4D depicts a section of lung tissue isolated from an animal in which the liver harbored a VX2 tumor after 14 days of growth. […] (Animals evaluated=4).
Finally, it was important to examine the effect of 3-BrPA when delivered systemically (i.e., via the general circulation) on both animal toxicity and its capacity to damage liver implanted tumors.

Consider `O=C(O)C(=O)CBr` [3-bromopyruvate], for which, for the setting “25 ml 0.5 mM, 4 days”, the “metastatic lung tumors with a diameter greater than 1 mm” value is given as “almost complete disappearance”. Also, the “number of metastatic lung tumors greater than 1 mm in diameter” value (of >27 tumors counted, untreated 5) is reported as “none”.
